From PMC12102759 (Protein Science : A Publication of the Protein Society, 2025)

How the values were obtained:
NSP9 = NSP9 (Severe acute respiratory syndrome coronavirus 2, UniProt P0DTC1); assay: biochemical; format: binding, SARS‐CoV‐2
G3BP1 NFT2 = format: binding, human; conditions: library DMS-BM; bait G3BP1 NFT2; prey CAPRIN1; AQMQGPYNFIQDSM(averaged): mean of the two overlapping peptides over the shared positions

## Ac-QGAWLGAPVPWEPLLD-NH2 [NOTCH4 E1614V]
NSP9
  IC50: 178 µM

## Ac-QGVWLGAPEPWEPLLD-NH2 [NOTCH4 A1608V]
NSP9
  IC50: 59 µM
  Kd: 16 µM

## Ac-QGVWLGAVEPWEPLLD-NH2 [NOTCH4 A1608V P1613V]
NSP9
  IC50: 33.4 µM
  Kd: 5.9 µM

## AQMQGPYNFIQDSM(averaged) M3N (AQNQGPYNFIQDSM)
G3BP1 NFT2
  DMS position-specific score (PSSM value) per amino-acid substitution, averaged: 0.00226

## AQMQGPYNFIQDSM(averaged) Q11R (AQMQGPYNFIRDSM)
G3BP1 NFT2
  DMS position-specific score (PSSM value) per amino-acid substitution, averaged: 0.004534

## AQMQGPYNFIQDSM(averaged) M3W (AQWQGPYNFIQDSM)
G3BP1 NFT2
  DMS position-specific score (PSSM value) per amino-acid substitution, averaged: 0.07564

## AQMQGPYNFIQDSM(averaged) A1R (RQMQGPYNFIQDSM)
G3BP1 NFT2
  DMS position-specific score (PSSM value) per amino-acid substitution, averaged: 0.004419

## AQMQGPYNFIQDSM(averaged) Q11G (AQMQGPYNFIGDSM)
G3BP1 NFT2
  DMS position-specific score (PSSM value) per amino-acid substitution, averaged: 0.1489

## AQMQGPYNFIQDSM(averaged) N8E (AQMQGPYEFIQDSM)
G3BP1 NFT2
  DMS position-specific score (PSSM value) per amino-acid substitution, averaged: 0.01047

## AQMQGPYNFIQDSM(averaged) D12K (AQMQGPYNFIQKSM)
G3BP1 NFT2
  DMS position-specific score (PSSM value) per amino-acid substitution, averaged: 0.003093

## AQMQGPYNFIQDSM(averaged) N8F (AQMQGPYFFIQDSM)
G3BP1 NFT2
  DMS position-specific score (PSSM value) per amino-acid substitution, averaged: 0.00737

## AQMQGPYNFIQDSM(averaged) Y7Q (AQMQGPQNFIQDSM)
G3BP1 NFT2
  DMS position-specific score (PSSM value) per amino-acid substitution, averaged: 0.001996

## AQMQGPYNFIQDSM(averaged) I10F (AQMQGPYNFFQDSM)
G3BP1 NFT2
  DMS position-specific score (PSSM value) per amino-acid substitution, averaged: 0.1045

## AQMQGPYNFIQDSM(averaged) D12T (AQMQGPYNFIQTSM)
G3BP1 NFT2
  DMS position-specific score (PSSM value) per amino-acid substitution, averaged: 0.005851

## AQMQGPYNFIQDSM(averaged) S13A (AQMQGPYNFIQDAM)
G3BP1 NFT2
  DMS position-specific score (PSSM value) per amino-acid substitution, averaged: 0.1575

## AQMQGPYNFIQDSM(averaged) S13S
G3BP1 NFT2
  DMS position-specific score (PSSM value) per amino-acid substitution, averaged: 0.5152

## AQMQGPYNFIQDSM(averaged) G5F (AQMQFPYNFIQDSM)
G3BP1 NFT2
  DMS position-specific score (PSSM value) per amino-acid substitution, averaged: 0.2345

## AQMQGPYNFIQDSM(averaged) I10N (AQMQGPYNFNQDSM)
G3BP1 NFT2
  DMS position-specific score (PSSM value) per amino-acid substitution, averaged: 0.0004895

## AQMQGPYNFIQDSM(averaged) Y7E (AQMQGPENFIQDSM)
G3BP1 NFT2
  DMS position-specific score (PSSM value) per amino-acid substitution, averaged: 0.0001172

## AQMQGPYNFIQDSM(averaged) A1L (LQMQGPYNFIQDSM)
G3BP1 NFT2
  DMS position-specific score (PSSM value) per amino-acid substitution, averaged: 0.06855

## AQMQGPYNFIQDSM(averaged) A1K (KQMQGPYNFIQDSM)
G3BP1 NFT2
  DMS position-specific score (PSSM value) per amino-acid substitution, averaged: 0.0005059

## AQMQGPYNFIQDSM(averaged) M3F (AQFQGPYNFIQDSM)
G3BP1 NFT2
  DMS position-specific score (PSSM value) per amino-acid substitution, averaged: 0.0581

## AQMQGPYNFIQDSM(averaged) Q4R (AQMRGPYNFIQDSM)
G3BP1 NFT2
  DMS position-specific score (PSSM value) per amino-acid substitution, averaged: 0.00079

## AQMQGPYNFIQDSM(averaged) D12H (AQMQGPYNFIQHSM)
G3BP1 NFT2
  DMS position-specific score (PSSM value) per amino-acid substitution, averaged: 0.1155

## AQMQGPYNFIQDSM(averaged) M3L (AQLQGPYNFIQDSM)
G3BP1 NFT2
  DMS position-specific score (PSSM value) per amino-acid substitution, averaged: 0.03704

## AQMQGPYNFIQDSM(averaged) M14N (AQMQGPYNFIQDSN)
G3BP1 NFT2
  DMS position-specific score (PSSM value) per amino-acid substitution, averaged: 0.007055

## AQMQGPYNFIQDSM(averaged) Y7M (AQMQGPMNFIQDSM)
G3BP1 NFT2
  DMS position-specific score (PSSM value) per amino-acid substitution, averaged: 0.001832

## AQMQGPYNFIQDSM(averaged) F9Y (AQMQGPYNYIQDSM)
G3BP1 NFT2
  DMS position-specific score (PSSM value) per amino-acid substitution, averaged: 0.002988

## AQMQGPYNFIQDSM(averaged) G5E (AQMQEPYNFIQDSM)
G3BP1 NFT2
  DMS position-specific score (PSSM value) per amino-acid substitution, averaged: 0.000605

## AQMQGPYNFIQDSM(averaged) Q2P (APMQGPYNFIQDSM)
G3BP1 NFT2
  DMS position-specific score (PSSM value) per amino-acid substitution, averaged: 0.007875

## AQMQGPYNFIQDSM(averaged) M14P (AQMQGPYNFIQDSP)
G3BP1 NFT2
  DMS position-specific score (PSSM value) per amino-acid substitution, averaged: 0

## AQMQGPYNFIQDSM(averaged) F9W (AQMQGPYNWIQDSM)
G3BP1 NFT2
  DMS position-specific score (PSSM value) per amino-acid substitution, averaged: 0
